Reference: ChEMBL document CHEMBL2021836, “Medicinal chemistry approaches to avoid aldehyde oxidase metabolism” (Bioorg Med Chem Lett, 2012)

What was measured:
[1] = target: T1, Toll-like receptor 7 (Homo sapiens) (UniProt Q9NYK1); experiment: Agonist activity at human TLR7 expressed in human PBMCs assessed as reduction in HCV replicon level after 48 hrs by Bright Glo luciferase reporter gene assay; format: functional
T1 sequence (whole entry): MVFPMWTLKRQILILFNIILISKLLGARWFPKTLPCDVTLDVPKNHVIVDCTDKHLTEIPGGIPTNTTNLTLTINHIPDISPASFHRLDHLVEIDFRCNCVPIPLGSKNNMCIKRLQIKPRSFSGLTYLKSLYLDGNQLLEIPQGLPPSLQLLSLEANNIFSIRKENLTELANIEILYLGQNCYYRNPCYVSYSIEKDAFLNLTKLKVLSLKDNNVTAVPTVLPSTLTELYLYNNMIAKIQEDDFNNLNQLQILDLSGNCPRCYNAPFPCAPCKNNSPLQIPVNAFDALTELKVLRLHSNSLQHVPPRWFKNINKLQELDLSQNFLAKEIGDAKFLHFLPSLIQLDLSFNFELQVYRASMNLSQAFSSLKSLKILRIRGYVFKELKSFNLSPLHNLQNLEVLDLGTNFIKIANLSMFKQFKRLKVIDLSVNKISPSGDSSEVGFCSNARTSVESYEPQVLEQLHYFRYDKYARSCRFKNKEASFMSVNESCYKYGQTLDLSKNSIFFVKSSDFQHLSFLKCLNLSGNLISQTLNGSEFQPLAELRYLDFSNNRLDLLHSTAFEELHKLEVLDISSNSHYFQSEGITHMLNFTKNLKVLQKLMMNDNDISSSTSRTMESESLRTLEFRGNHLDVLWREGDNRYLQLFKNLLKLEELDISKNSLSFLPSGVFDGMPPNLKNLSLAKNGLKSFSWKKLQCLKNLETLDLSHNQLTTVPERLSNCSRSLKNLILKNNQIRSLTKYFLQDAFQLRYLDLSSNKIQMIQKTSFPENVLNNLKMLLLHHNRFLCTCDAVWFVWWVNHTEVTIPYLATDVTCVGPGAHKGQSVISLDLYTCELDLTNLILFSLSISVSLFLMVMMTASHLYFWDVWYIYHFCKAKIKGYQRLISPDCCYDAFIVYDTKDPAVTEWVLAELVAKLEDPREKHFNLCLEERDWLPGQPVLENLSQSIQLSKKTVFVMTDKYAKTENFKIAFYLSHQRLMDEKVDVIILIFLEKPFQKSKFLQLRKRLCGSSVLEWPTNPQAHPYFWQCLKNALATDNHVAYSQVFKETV

[2] = Intrinsic clearance in rat liver microsomes; format: ADME, Microsome; settings: read-out: CLH
[3] = Intrinsic clearance in rat cytosol after 45 mins by LC/MS analysis; format: ADME
[4] = Intrinsic clearance in human cytosol after 45 mins by LC/MS analysis; format: ADME
[5] = Intrinsic clearance in human liver microsomes; format: ADME, Microsome; settings: read-out: CLH

Compound | Activity [1] | microsomal CLint [2] | microsomal CLint [3] | microsomal CLint [4] | microsomal CLint [5]
Nc1nc(C(F)(F)F)cc2c1[nH]c(=O)n2Cc1ccc(N2CCOCC2)nc1 | 32 nM | – | – | – | –
CCc1coc(-c2cc3c([nH]c(=O)n3Cc3ccc(C)nc3)c(N)n2)n1 | 116 nM | – | – | – | –
Cc1nc(Cn2c(=O)[nH]c3c(N)nc(C(F)(F)F)cc32)co1 | – | < 10 µL/min/mg | < 1 µL/min/mg | < 1 µL/min/mg | < 8 µL/min/mg
Cc1cc(Cn2c(=O)[nH]c3c(N)nc(C(F)(F)F)cc32)no1 | – | < 9 µL/min/mg | < 1 µL/min/mg | < 1 µL/min/mg | < 8 µL/min/mg
Nc1ccc(Cn2c(=O)[nH]c3c(N)nc(C(F)(F)F)cc32)cn1 | 43 nM | – | – | – | –
COc1ccc(Cn2c(=O)[nH]c3c(N)nc(C(F)(F)F)cc32)cn1 | 74 nM | – | – | – | –
Nc1nc(C(F)(F)F)cc2c1[nH]c(=O)n2Cc1ccc(C(F)(F)F)nc1 | 75 nM | – | – | – | –
Nc1nc(C(F)(F)F)cc2c1[nH]c(=O)n2Cc1ccc(NCC2CC2)nc1 | 122 nM | – | – | – | –
Cc1nc(Cn2c(=O)[nH]c3c(N)nc(C(F)(F)F)cc32)cs1 | – | < 10 µL/min/mg | < 1 µL/min/mg | < 1 µL/min/mg | < 7 µL/min/mg
